From patent US4059622A, “Alkanolamine derivatives” (Imperial Chemical Industries Limited, priority 1970, dated 1977)
Where two headings read alike, the source gives them in different places. One block for each compound: values may come before it.

Target: T1, cardiac β-receptors (Felis catus, UniProt Q9TST6)
T1 construct: bodyweight of isoprenaline into a chloralose-anaesthetised cat; from tissue; host or cells: heart of the living chloralose-anaesthetised cat (in vivo)
Test: inhibition of the tachycardia produced by injection of 0.2 μg/kg isoprenaline into a chloralose-anaesthetised cat (β-adrenergic blocking activity)
Type: in vivo
Protocol: The comparison of the β-adrenergic blocking activity of compounds of the present invention with those of the said prior specification may be carried out using a test standard in the art, namely the inhibition of the tachycardia produced by the injection of 0.2 μg. per kg. bodyweight of isoprenaline into a chloralose-anaesthetised cat.

[1] = inhibition of tachycardia by 0.2 μg/kg isoprenaline, chloralose-anaesthetised cat, per kg bodyweight, read-out: 50% inhibitory dose (ED50), β-adrenergic blocking activity
[2] = para-substituted prior-art compounds, chloralose-anaesthetised cat, isoprenaline 0.2 μg/kg, read-out: ED50, Compound A
[3] = other highly active compounds of the invention, chloralose-anaesthetised cat, isoprenaline 0.2 μg/kg, read-out: ED50
[4] = ortho-substituted compounds of the invention, chloralose-anaesthetised cat, isoprenaline 0.2 μg/kg, read-out: ED50, Compound B

T1 sequence (Q9TST6 whole entry): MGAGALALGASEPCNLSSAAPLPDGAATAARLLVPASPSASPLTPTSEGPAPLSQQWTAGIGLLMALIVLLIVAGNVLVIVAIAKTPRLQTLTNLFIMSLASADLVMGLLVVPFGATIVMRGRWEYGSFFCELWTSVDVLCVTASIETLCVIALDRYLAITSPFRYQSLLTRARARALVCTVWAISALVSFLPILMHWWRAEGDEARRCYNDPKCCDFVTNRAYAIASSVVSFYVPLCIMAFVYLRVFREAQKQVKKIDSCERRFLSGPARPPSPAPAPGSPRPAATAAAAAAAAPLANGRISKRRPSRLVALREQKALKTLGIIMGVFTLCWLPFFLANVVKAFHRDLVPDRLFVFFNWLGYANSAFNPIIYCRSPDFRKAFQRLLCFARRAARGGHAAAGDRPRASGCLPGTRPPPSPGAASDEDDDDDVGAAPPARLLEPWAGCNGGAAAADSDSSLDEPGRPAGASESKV

Structure (SMILES): CC(C)(C)NCC(O)COc1ccc(CC(N)=O)cc1 (stereo not shown) [Compound A, R^1 t-butyl, R^2 H, reference compound]
ED50 [2]: 0.136 mg/kg

Structure (SMILES): C=CCNC(=O)Cc1ccc(OCC(O)CNC(C)C)cc1 (stereo not shown) [Compound A, R^1 isopropyl, R^2 allyl, reference compound]
ED50 [2]: 1.47 mg/kg

Structure (SMILES): CC(C)NCC(O)COc1ccccc1OCC(=O)NCCO (stereo not drawn) [R^1 isopropyl, R^3 2-hydroxyethyl, 1-o-(N-β-hydroxyethylcarbamoylmethoxy)phenoxy-3-isopropylamino-2-propanol]
ED50 [3]: 0.009 mg/kg

Structure (SMILES): CC(C)NCC(O)COc1ccc(CC(N)=O)cc1 (stereo not shown) [Compound A, R^1 isopropyl, R^2 H, reference compound]
ED50 (cat, read-out: ED50, Compound A): 0.096 mg/kg

Structure (SMILES): CC(C)NCC(O)COc1ccccc1OCC(=O)NC(C)C (stereo not shown) [Compound B, R^1 isopropyl, R^3 isopropyl, 1-isopropylamino-3-(o-N-isopropylcarbamoylmethoxyphenoxy)propan-2-ol]
ED50 [4]: 0.2 mg/kg

Structure (SMILES): CNC(=O)COc1ccccc1OCC(O)CNC(C)(C)CO (stereo not shown)
ED50 [3]: 0.03 mg/kg

Structure (SMILES): CNC(=O)COc1ccccc1OCC(O)CNC(C)C (stereo not shown) [Compound B, R^1 isopropyl, R^3 methyl, 1-isopropylamino-3-(o-N-methylcarbamoylmethoxyphenoxy)propan-2-ol]
ED50 [4]: 0.02 mg/kg

Structure (SMILES): CC(C)NCC(O)COc1ccccc1CC(N)=O (stereo not shown) [1-o-carbamoylmethylphenoxy-3-isopropylaminopropan-2-ol, reference compound]
ED50 [1]: 0.481 mg/kg

Structure (SMILES): CC(C)NCC(O)COc1ccccc1OCC(N)=O (stereo not shown) [Compound B, R^1 isopropyl, R^3 H, 1-isopropylamino-3-(o-carbamoylmethoxyphenoxy)propan-2-ol]
ED50 [1]: 0.058 mg/kg
ED50 [4]: 0.058 mg/kg

Structure (SMILES): CCCCNC(=O)COc1ccccc1OCC(O)CNC(C)C (stereo not shown) [Compound B, R^1 isopropyl, R^3 n-butyl]
ED50 [4]: 0.143 mg/kg

Structure (SMILES): C=CCNC(=O)COc1ccccc1OCC(O)CNC(C)C (stereo not shown) [Compound B, R^1 isopropyl, R^3 allyl, 1-isopropylamino-3-(o-N-allylcarbamoylmethoxyphenoxy)propan-2-ol]
ED50 [4]: 0.034 mg/kg

Structure (SMILES): CCCCNC(=O)Cc1ccc(OCC(O)CNC(C)C)cc1 (stereo not shown) [Compound A, R^1 isopropyl, R^2 n-butyl, reference compound]
ED50 [2]: 0.606 mg/kg

Structure (SMILES): CC(C)NCC(O)COc1ccc(CC(=O)NC(C)C)cc1 (stereo not shown) [Compound A, R^1 isopropyl, R^2 isopropyl, reference compound]
ED50 [2]: 0.225 mg/kg

Structure (SMILES): CNC(=O)Cc1ccc(OCC(O)CNC(C)C)cc1 (stereo not shown) [Compound A, R^1 isopropyl, R^2 methyl, reference compound]
ED50 [2]: 0.335 mg/kg

Structure (SMILES): CC(C)(C)NCC(O)COc1ccccc1OCC(N)=O (stereo not shown) [Compound B, R^1 t-butyl, R^3 H, 1t-butylamino-3-(o-carbamoylmethoxyphenoxy)propan-2-ol]
ED50 [4]: 0.011 mg/kg

More lines, now with the values ahead:

ED50 [1]: ~0.2 mg/kg
Structure (SMILES): CC(=O)Nc1ccc(OCC(O)CNC(C)C)cc1 (stereo not shown) [practolol, reference compound]

ED50 [3]: 0.04 mg/kg
Structure (SMILES): CC(C)(C)NCC(O)COc1ccccc1OCC(=O)NCCO (stereo not drawn) [R^1 t-butyl, R^3 2-hydroxyethyl, 1-o-(N-β-hydroxyethylcarbamoylmethoxy)phenoxy-3-t-butylaminopropan-2-ol]

ED50 [3]: 0.047 mg/kg
Structure (SMILES): CC(C)NCC(O)COc1ccccc1OCC(=O)NCCCO (stereo not shown) [R^1 isopropyl, R^3 3-hydroxypropyl, 1-o-(N-γ-hydroxypropylcarbamoylmethoxy)phenoxy-3-isopropylamino-2-propanol]

ED50 [3]: 0.018 mg/kg
Structure (SMILES): CCNC(=O)COc1ccccc1OCC(O)CNC(C)(C)C (stereo not shown) [R^1 t-butyl, R^3 ethyl, 1-t-butylamino-3-(o-N-ethylcarbamoylmethoxyphenoxy)propan-2-ol]

ED50 [3]: 0.074 mg/kg
Structure (SMILES): CC(C)(C)NCC(O)COc1ccccc1OCC(=O)NCCCO (stereo not shown) [R^1 t-butyl, R^3 3-hydroxypropyl, 1-o-(N-γ-hydroxypropylcarbamoyl-methoxy)phenoxy-3-t-butylamino-2-propanol]

ED50 [3]: 0.068 mg/kg
Structure (SMILES): CCNC(=O)COc1ccccc1OCC(O)CNC(C)C (stereo not shown) [R^1 isopropyl, R^3 ethyl, 1-isopropylamino-3-(o-N-ethylcarbamoylmethoxyphenoxy)propan-2-ol]

ED50 [3]: 0.027 mg/kg
Structure (SMILES): COCCNC(=O)COc1ccccc1OCC(O)CNC(C)C (stereo not drawn) [R^1 isopropyl, R^3 2-methoxyethyl, 1-o-(N-β-methoxyethylcarbamoylmethoxy)phenoxy-3-isopropylamino-2-propanol]

ED50 [3]: 0.027 mg/kg
Structure (SMILES): C=CCNC(=O)COc1ccccc1OCC(O)CNC(C)(C)C (stereo not shown) [R^1 t-butyl, R^3 allyl, 1-t-butylamino-3-(o-N-allylcarbamoylmethoxyphenoxy)propan-2-ol]

ED50 [3]: 0.014 mg/kg
Structure (SMILES): CNC(=O)COc1ccccc1OCC(O)CNC(C)(C)C (stereo not shown) [R^1 t-butyl, R^3 methyl, 1-t-butylamino-3-(o-N-methylcarbamoylmethoxyphenoxy)propan-2-ol]
